Converted amounts (≈) assume the structure as drawn. Like-named read-outs stand apart in the source and are kept apart here.
What was measured:
[1] = Stability experiment: content and related substance by HPLC; type: physicochemical
Description: (§1) 1. Stability experiment of crystal form A and crystal form B-1 • (A) An appropriate amount of samples were weighed respectively and placed open at room temperature and under accelerated conditions (40° C./75% RH), on day 0, 7, 14, and 28 • (B) Crystal form A was placed in an oven at 60° C., on day 14, 32.
(§2) The content and related substance changes were detected by HPLC, and XRD was measured at the same time to investigate stability of the crystal forms.

[2] = Stability experiment: crystal form by XRD; type: physicochemical
Description: as §1, §2

[3] = Solubility experiment; type: physicochemical; settings: for solubility in aqueous medium (summary): aqueous media of Table 6
[4] = Hygroscopicity test (DVS); type: physicochemical; settings: for hygroscopicity (in words): 80% RH at 25° C.; for hygroscopic weight gain: humidity increases to 80% RH at 25° C.
Description: The Dynamic Vapor Sorption (DVS) curve: acquired on the DVS Intrinsic of Surface Measurement Systems. The relative humidity at […] is corrected with the deliquescence points of LiCl, Mg (NO3)2 and KCl.

[5] = Thermogravimetric analysis; type: physicochemical; settings: under 50° C.-90° C.
From the text: TGA and DSC pattern: TGA and DSC pattern were collected on TA Q500/5000 thermogravimetric analyzer and TA Q200/2000 differential scanning calorimeter respectively.

[6] = target: T1, CDK1 (Homo sapiens, UniProt P06493); assay: Kinase test in vitro (LANCE Ultra, Ulight-4EBP1); type: biochemical
T1 construct: purchased BPS
From the text: (§3) Recombinant CDK1, CCNB1 and CDK9, and CCNT were purchased from BPS; CDK2, CCNA1, CDK4, CCND1 and CDK6, and CCND1 were purchased from Invitrogen; CDK4, CycD3 and CDK6, and CycD3 were purchased from Carna. Adenosine triphosphate (ATP) was purchased from Life tech. Substrate Ulight-4EBP1 and the corresponding detection antibody were purchased from Perkinelmer. LANCE Ultra system from Perkinelmer is used as the detection system.
(§4) In the kinase test, a compound to be tested was 1:3 diluted for 8 gradient points and added into a reaction plate, and then an appropriate amount of recombinase was added. A buffer [50 mM HEPES pH7.5, 10 mM MgCl2, 3 mM MnCl2, 1 mM EGTA, 0.01% Tween-20, 1 mM TCEP] containing ATP, Ulight-4EBP1 premix at a predetermined concentration was subsequently added, and the kinase reaction began at room temperature. A test solution pre-mixed with 10 mM EDTA and detection antibody was added after a suitable reaction time, and then the fluorescence value was read on Tecan infinite pro after reacting for 1 hour at room temperature. The IC50 was calculated using a four-factor model fitting in a XLfit software.

[7] = target: T2, CDK2 (Homo sapiens, UniProt P24941); assay: Kinase test in vitro (LANCE Ultra, Ulight-4EBP1); type: biochemical
T2 construct: purchased Invitrogen
From the text: as §3, §4

[8] = target: T3, CDK4 (Homo sapiens, UniProt P11802); assay: Kinase test in vitro (LANCE Ultra, Ulight-4EBP1); type: biochemical
T3 construct: purchased Invitrogen or Carna
From the text: as §3, §4

[9] = target: T4, CDK6 (Homo sapiens, UniProt Q00534); assay: Kinase test in vitro (LANCE Ultra, Ulight-4EBP1); type: biochemical
T4 construct: purchased Invitrogen or Carna
From the text: as §3, §4

[10] = accelerated conditions 40° C./75% RH, open, on day 7
[11] = accelerated conditions 40° C./75% RH, open, on day 14
[12] = accelerated conditions 40° C./75% RH, open, on day 28
[13] = accelerated conditions 40° C./75% RH, open, on day 28, footnote: content obviously higher, measurement has errors
[14] = room temperature and accelerated conditions (40° C./75% RH), up to 28 days
[15] = room temperature, open, on day 7
[16] = room temperature, open, on day 14
[17] = room temperature, open, on day 28
[18] = room temperature, open, on day 28, footnote: content obviously higher, measurement has errors
[19] = accelerated conditions for 28 days
[20] = 0.1 M HCl, calculated for crystal form I
[21] = Acetone, calculated for crystal form I
[22] = Acetonitrile, calculated for crystal form I
[23] = Ethanol, calculated for crystal form I
[24] = Ethyl acetate, calculated for crystal form I
[25] = H2O, calculated for crystal form I
[26] = Isopropanol, calculated for crystal form I
[27] = Methanol, calculated for crystal form I
[28] = Tetrahydrofuran, calculated for crystal form I
[29] = medium pH4.5, calculated for crystal form I
[30] = medium pH6.8, calculated for crystal form I
[31] = medium pH7.4, calculated for crystal form I

T4 sequence (Q00534 whole entry): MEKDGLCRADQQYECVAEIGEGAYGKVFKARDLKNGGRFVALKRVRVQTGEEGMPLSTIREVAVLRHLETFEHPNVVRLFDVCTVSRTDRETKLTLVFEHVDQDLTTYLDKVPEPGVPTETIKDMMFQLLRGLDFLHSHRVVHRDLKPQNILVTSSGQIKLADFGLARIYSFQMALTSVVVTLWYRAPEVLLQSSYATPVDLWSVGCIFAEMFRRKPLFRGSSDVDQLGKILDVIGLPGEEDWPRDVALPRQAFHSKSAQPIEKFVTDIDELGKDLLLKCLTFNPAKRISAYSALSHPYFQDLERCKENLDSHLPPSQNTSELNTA
T4 sequence (P24385 whole entry partner): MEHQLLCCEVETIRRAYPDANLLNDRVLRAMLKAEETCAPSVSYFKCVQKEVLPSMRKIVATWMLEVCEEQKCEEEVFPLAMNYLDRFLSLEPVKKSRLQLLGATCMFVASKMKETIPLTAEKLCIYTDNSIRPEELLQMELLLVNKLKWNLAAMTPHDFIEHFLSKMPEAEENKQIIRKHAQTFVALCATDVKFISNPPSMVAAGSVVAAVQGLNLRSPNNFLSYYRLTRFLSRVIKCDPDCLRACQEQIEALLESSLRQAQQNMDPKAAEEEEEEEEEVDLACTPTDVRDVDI
T1 sequence (P06493 whole entry): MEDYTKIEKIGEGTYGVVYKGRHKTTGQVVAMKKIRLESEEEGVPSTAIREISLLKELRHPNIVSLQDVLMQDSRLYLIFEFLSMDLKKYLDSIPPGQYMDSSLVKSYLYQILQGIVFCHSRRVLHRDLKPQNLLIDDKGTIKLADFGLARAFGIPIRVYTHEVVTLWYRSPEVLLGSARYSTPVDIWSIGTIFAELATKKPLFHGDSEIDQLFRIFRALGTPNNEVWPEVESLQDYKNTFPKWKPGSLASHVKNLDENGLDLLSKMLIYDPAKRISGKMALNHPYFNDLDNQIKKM
T1 sequence (P14635 whole entry partner): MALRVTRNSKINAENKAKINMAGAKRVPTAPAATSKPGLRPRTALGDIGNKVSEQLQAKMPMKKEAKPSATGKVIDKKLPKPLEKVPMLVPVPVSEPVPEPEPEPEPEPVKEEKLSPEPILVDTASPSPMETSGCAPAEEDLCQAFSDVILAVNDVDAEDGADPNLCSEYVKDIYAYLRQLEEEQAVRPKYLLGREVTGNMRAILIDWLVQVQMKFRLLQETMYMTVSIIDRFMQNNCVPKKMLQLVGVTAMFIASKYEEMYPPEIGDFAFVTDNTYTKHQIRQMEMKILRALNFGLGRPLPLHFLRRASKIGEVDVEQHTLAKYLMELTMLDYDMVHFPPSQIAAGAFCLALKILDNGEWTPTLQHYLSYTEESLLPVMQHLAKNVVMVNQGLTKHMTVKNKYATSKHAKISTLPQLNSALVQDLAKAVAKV
T3 sequence (P11802 whole entry): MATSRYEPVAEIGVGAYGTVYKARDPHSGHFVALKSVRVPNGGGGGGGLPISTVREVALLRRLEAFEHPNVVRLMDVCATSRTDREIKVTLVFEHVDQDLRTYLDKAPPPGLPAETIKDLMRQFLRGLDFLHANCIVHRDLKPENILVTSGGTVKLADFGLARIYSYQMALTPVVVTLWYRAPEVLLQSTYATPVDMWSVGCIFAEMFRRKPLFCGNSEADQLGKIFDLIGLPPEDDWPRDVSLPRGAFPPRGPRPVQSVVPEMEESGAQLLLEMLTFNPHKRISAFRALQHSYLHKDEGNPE
T3 sequence (P24385 whole entry partner): as the sequence (P24385 whole entry partner) above

| SMILES | Content [1, 10] [%] | Impurity peak [1, 10] | Content [1, 11] [%] | Impurity peak [1, 11] | Impurity peak [1, 12] | Content [1, 13] [%] | Solubility [3, 20] [mg/mL] | Solubility [3, 21] [mg/mL] | Solubility [3, 22] [mg/mL] | Solubility [3, 23] [mg/mL] | Solubility [3, 24] [mg/mL] | Solubility [3, 25] [mg/mL] | Solubility [3, 26] [mg/mL] | Solubility [3, 27] [mg/mL] | Solubility [3, 28] [mg/mL] | Solubility [3, 29] [mg/mL] | Solubility [3, 30] [mg/mL] | Solubility [3, 31] [mg/mL] | hygroscopicity (in words) [4] | hygroscopic weight gain [4] [%] | also measured |
| --- | --- | --- | --- | --- | --- | --- | --- | --- | --- | --- | --- | --- | --- | --- | --- | --- | --- | --- | --- | --- | --- |
| CCN1CCN(Cc2ccc(Nc3ncc4c(n3)-c3c(nc(C5CC5)n3C(C)C)C4)nc2)CC1 [Crystal form A] | 100.97 | none | 104.46 | none | none | 113.75 | >58.10 | 0.23 (≈ 0.502 mM) | 0.22 (≈ 0.48 mM) | 6.97 (≈ 15.2 mM) | 0.03 (≈ 0.0654 mM) | 11.59 (≈ 25.3 mM) | 0.26 (≈ 0.567 mM) | 41.04 (≈ 89.5 mM) | 0.15 (≈ 0.327 mM) | 14.30 (≈ 31.2 mM) | 19.66 (≈ 42.9 mM) | 17.86 (≈ 38.9 mM) | slightly hygroscopic | 0.613 | chemical stability (in words) ([1]; 60° C., 14 and 32 days): chemical properties are stable; Content ([1]; on day 0): 103.14%; Impurity peak ([1]; on day 0): none; Content ([1]; oven at 60° C., on day 14): 106.2%; Impurity peak ([1]; oven at 60° C., on day 14): none; Content ([1]; oven at 60° C., on day 32): 104.5%; Impurity peak ([1]; oven at 60° C., on day 32): none; chemical stability (in words) [1, 14]: chemical properties are stable; Content [1, 15]: 103.82%; Impurity peak [1, 15]: none; Content [1, 16]: 104.20%; Impurity peak [1, 16]: none; Impurity peak [1, 17]: none; Content [1, 18]: 116.27%; crystal form stability by XRD (in words) [2, 19]: crystal form is stable; crystal form stability by XRD (in words) ([2]; high temperature of 60° C. for 14 days and 32 days): not transformed; solubility in aqueous medium (summary) [3]: more than 11 mg/ml |
| CCN1CCN(Cc2ccc(Nc3ncc4c(n3)-c3c(nc(C5CC5)n3C(C)C)C4)nc2)CC1 [Crystal form B-1] | 94.36 | none | 95.19 | none | none | 110.05 | >40.10 | >41.11 | 0.28 (≈ 0.611 mM) | 19.59 (≈ 42.7 mM) | 0.02 (≈ 0.0436 mM) | >40.85 | 0.58 (≈ 1.26 mM) | >45.19 | 0.39 (≈ 0.85 mM) | >29.40 | >27.40 | >25.65 | has hygroscopicity | 6.88 | Content ([1]; on day 0): 94.43%; Impurity peak ([1]; on day 0): none; chemical stability (in words) [1, 14]: chemical properties are stable; Content [1, 15]: 96.50%; Impurity peak [1, 15]: none; Content [1, 16]: 96.45%; Impurity peak [1, 16]: none; Impurity peak [1, 17]: none; Content [1, 18]: 107.12%; crystal form stability by XRD (in words) [2, 19]: crystal form is stable; solubility in aqueous medium (summary) [3]: more than 25 mg/ml; weight loss (TGA) [5]: about 7.4% |
| CCN1CCN(Cc2ccc(Nc3ncc4c(n3)-c3c(nc(C5CC5)n3C(C)C)C4)nc2)CC1 [Crystal form I] | – | – | – | – | – | – | – | >5 | >1 | >50 | >10 | 0.36 (≈ 0.785 mM) | >20 | >100 | >100 | 9.66 (≈ 21.1 mM) | 2.85 (≈ 6.21 mM) | 1.08 (≈ 2.35 mM) | has hygroscopicity | 8.84 | solubility ranking of the crystal forms (in words) [3]: the lowest solubility; Solubility ([3]; 0.1 M HCl, simulated gastric fluid, thermodynamic from solid, 0.1 M HCl, calculated for crystal form I, read-out: Solubility): 34.7 mg/mL (≈ 75.7 mM); Solubility ([3]; 50% acetonitrile, aqueous with cosolvent or surfactant or cyclodextrin, thermodynamic from solid, 50% Acetonitrile, calculated for crystal form I, read-out: Solubility): > 25 mg/mL; Solubility ([3]; dimethyl sulfoxide, organic solvent or mixture, thermodynamic from solid, Dimethyl sulfoxide, calculated for crystal form I, read-out: Solubility): > 6.6 mg/mL; Solubility ([3]; methyl tert-butyl ether, organic solvent or mixture, thermodynamic from solid, Methyl tert-butyl ether, calculated for crystal form I, read-out: Solubility): > 2 mg/mL; Solubility ([3]; n-heptane, organic solvent or mixture, thermodynamic from solid, N-heptane, calculated for crystal form I, read-out: Solubility): < 2 mg/mL |
| CCN1CCN(Cc2ccc(Nc3ncc4c(n3)-c3c(nc(C5CC5)n3C(C)C)C4)nc2)CC1 [Crystal form K-1] | – | – | – | – | – | – | >44.74 | 11.47 (≈ 25 mM) | >16.64 | >41.86 | 11.48 (≈ 25 mM) | >38.91 | >42.89 | >30.41 | 39.09 (≈ 85.2 mM) | >35.09 | >33.57 | >38.78 | very hygroscopic | 30.74 | solubility ranking of the crystal forms (in words) [3]: the best solubility; Solubility ([3]; thermodynamic from solid, all solvents and media of Table 6, read-out: solubility in organic solvents and aqueous medium (summary)): 11 to 45 mg/mL (≈ 24 to 98.1 mM) |
| Cc1c2c(nn1C)CCc1cnc(Nc3ccc(N4CCN(C)CC4)cc3)nc1-2 [compound 1, reference compound] | – | – | – | – | – | – | – | – | – | – | – | – | – | – | – | – | – | – | – | – | IC50 [6]: 93 nM; inhibitory activity against CDK1 (in words) [6]: strong inhibitory activity; IC50 [7]: 23 nM; inhibitory activity against CDK2 (in words) [7]: strong inhibitory activity; IC50 [8]: 8 nM; inhibitory activity against CDK4 (in words) [8]: strong inhibitory activity; IC50 [9]: 53 nM; inhibitory activity against CDK6 (in words) [9]: strong inhibitory activity |

From patent US20210214358A1, “CDK4/6 INHIBITOR AND PHARMACEUTICALLY ACCEPTABLE SALT AND POLYMORPH THEREOF AND USE THEREOF” (SHANGHAI HAIYAN PHARMACEUTICAL TECHNOLOGY CO., LTD., priority 2018, published 2021)
